PMC6407917, “Identification of GSK3186899/DDD853651 as a Preclinical Development Candidate for the Treatment of Visceral Leishmaniasis” (Journal of Medicinal Chemistry, 2018)

Experiments:
Experiment in all cases: biochemical
Design in all cases: species or system HEK293/K-562/placenta mixed human extract; Kinobeads chemoproteomic competition binding, quantified by TMT LC-MS/MS, dose response up to 20 uM
[1] = target: AXL (Homo sapiens, UniProt P30530)
[2] = target: CDC42BPG (Homo sapiens, UniProt Q6DT37)
[3] = target: EPHB6 (Homo sapiens, UniProt O15197)
[4] = target: DSTYK (Homo sapiens, UniProt Q6XUX3)
[5] = target: DDR1 (Homo sapiens, UniProt Q08345)
[6] = target: CDK9 (Homo sapiens, UniProt P50750)
[7] = target: FER (Homo sapiens, UniProt P16591)
[8] = target: TYRO3 (Homo sapiens, UniProt Q06418)
[9] = target: PKN1 (Homo sapiens, UniProt Q16512)
[10] = target: MAP4K1 (Homo sapiens, UniProt Q92918)
[11] = target: PKN3 (Homo sapiens, UniProt Q6P5Z2)
[12] = target: MYLK3 (Homo sapiens, UniProt Q32MK0)
[13] = target: PHKA2 (Homo sapiens, UniProt P46019)
[14] = target: SGK3 (Homo sapiens, UniProt Q96BR1)
[15] = target: STK38 (Homo sapiens, UniProt Q15208)
[16] = target: TAOK1 (Homo sapiens, UniProt Q7L7X3)
[17] = target: PRKX (Homo sapiens, UniProt P51817)
[18] = target: ADCK1 (Homo sapiens, UniProt Q86TW2)
[19] = target: BUB1 (Homo sapiens, UniProt O43683)
[20] = target: SYK (Homo sapiens, UniProt P43405)
[21] = target: BRAF (Homo sapiens, UniProt P15056)

Sequence of TYRO3 (Q06418 whole entry): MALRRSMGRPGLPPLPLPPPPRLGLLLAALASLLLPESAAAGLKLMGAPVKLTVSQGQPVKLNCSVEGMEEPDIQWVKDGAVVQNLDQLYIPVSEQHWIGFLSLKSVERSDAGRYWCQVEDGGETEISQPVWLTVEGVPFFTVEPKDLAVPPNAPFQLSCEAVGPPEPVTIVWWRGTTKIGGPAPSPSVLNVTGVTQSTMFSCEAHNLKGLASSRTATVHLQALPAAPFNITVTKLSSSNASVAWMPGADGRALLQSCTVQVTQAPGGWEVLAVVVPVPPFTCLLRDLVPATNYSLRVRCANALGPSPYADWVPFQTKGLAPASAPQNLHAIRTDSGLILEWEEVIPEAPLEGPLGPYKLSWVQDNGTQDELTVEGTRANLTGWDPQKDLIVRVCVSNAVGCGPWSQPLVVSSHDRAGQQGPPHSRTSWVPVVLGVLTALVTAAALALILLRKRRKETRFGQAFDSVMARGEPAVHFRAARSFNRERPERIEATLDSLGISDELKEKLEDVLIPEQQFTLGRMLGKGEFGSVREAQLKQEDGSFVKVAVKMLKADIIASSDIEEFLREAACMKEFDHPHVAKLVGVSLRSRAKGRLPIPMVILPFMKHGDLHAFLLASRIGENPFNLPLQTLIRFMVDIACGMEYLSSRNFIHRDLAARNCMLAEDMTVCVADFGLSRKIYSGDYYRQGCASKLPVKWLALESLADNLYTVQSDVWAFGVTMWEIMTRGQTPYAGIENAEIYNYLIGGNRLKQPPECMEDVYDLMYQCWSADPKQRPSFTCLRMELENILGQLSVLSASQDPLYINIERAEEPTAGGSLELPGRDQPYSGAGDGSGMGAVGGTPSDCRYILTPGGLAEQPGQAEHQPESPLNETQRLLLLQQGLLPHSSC
Sequence of BUB1 (O43683 whole entry): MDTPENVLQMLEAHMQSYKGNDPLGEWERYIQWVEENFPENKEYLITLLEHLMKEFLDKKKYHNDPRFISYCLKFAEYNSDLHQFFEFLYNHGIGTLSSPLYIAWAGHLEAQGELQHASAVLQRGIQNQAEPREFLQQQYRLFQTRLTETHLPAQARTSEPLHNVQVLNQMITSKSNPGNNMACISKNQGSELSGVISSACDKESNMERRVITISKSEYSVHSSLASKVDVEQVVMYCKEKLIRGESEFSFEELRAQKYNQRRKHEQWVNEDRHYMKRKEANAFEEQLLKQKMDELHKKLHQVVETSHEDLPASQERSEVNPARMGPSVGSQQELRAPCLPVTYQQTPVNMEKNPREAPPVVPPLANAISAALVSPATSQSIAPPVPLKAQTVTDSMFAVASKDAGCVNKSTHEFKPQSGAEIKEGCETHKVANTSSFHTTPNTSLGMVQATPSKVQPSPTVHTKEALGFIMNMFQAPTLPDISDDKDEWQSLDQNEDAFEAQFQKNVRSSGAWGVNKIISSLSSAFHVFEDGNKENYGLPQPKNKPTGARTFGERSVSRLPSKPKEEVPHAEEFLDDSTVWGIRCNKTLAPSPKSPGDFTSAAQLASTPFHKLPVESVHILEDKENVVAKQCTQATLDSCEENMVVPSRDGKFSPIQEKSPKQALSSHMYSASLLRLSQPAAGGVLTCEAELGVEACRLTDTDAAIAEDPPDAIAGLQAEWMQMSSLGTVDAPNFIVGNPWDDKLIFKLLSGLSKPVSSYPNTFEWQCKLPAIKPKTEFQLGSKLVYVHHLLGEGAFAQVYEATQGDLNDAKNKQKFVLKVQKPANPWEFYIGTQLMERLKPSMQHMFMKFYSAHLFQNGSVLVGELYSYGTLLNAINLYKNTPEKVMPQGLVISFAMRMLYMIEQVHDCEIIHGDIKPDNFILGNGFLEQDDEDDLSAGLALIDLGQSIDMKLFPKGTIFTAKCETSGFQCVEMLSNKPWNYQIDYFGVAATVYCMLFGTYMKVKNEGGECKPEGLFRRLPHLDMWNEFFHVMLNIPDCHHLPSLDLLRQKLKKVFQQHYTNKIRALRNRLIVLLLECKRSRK
Sequence of PRKX (P51817 whole entry): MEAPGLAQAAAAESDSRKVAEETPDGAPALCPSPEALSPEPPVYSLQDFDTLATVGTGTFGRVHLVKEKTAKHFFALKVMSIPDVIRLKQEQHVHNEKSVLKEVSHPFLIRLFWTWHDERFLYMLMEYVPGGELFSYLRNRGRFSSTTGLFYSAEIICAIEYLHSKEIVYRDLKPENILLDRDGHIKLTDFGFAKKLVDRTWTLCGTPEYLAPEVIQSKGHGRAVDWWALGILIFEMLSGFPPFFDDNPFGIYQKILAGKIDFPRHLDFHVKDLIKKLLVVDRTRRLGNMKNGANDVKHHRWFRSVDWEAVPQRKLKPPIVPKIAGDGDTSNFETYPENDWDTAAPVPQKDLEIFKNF
Sequence of MAP4K1 (Q92918 whole entry): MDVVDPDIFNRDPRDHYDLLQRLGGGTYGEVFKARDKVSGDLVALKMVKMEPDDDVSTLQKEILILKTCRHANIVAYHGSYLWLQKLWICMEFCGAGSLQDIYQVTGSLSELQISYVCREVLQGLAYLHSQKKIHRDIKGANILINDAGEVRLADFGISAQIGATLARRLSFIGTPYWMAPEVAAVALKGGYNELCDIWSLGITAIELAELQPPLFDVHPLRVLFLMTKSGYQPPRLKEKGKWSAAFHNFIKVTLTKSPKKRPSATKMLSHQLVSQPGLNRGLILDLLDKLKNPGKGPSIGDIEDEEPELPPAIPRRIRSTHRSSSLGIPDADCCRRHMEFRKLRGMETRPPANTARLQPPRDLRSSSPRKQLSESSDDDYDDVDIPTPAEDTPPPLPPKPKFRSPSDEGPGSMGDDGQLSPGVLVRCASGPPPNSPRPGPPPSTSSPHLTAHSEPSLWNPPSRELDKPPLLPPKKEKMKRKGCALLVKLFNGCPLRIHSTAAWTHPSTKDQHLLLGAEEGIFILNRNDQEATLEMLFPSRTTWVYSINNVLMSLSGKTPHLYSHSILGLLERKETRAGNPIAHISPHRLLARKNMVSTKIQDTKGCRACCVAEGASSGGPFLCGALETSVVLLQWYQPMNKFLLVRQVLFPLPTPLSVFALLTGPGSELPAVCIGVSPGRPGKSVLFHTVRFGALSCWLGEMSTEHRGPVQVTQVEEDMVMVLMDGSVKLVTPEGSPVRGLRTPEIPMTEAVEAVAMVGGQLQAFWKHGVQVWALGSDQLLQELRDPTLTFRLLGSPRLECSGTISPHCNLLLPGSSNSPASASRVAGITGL
Sequence of DSTYK (Q6XUX3 whole entry): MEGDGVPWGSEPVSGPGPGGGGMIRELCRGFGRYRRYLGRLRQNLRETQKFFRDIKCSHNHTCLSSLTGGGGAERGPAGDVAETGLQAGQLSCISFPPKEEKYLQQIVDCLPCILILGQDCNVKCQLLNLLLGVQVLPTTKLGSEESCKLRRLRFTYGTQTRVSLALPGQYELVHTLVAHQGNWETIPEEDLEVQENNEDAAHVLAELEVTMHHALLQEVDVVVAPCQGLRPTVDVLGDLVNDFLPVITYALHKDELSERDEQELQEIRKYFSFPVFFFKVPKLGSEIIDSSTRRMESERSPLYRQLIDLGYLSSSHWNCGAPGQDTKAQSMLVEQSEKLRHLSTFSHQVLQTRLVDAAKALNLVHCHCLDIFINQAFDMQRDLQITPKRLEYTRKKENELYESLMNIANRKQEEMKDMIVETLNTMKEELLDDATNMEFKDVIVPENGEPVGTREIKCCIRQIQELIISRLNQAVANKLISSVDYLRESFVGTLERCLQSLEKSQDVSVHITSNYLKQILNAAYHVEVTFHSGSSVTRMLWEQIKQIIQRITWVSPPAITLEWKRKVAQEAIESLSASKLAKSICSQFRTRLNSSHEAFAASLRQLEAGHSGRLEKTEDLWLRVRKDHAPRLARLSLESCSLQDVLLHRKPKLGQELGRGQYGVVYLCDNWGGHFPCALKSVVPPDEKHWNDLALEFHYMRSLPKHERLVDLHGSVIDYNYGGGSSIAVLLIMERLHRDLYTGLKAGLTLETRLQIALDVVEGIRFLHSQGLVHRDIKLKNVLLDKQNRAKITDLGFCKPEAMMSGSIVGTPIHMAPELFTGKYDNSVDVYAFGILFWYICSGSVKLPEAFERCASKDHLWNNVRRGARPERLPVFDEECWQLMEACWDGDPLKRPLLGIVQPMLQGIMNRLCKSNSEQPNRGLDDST
Sequence of CDK9 (P50750 whole entry): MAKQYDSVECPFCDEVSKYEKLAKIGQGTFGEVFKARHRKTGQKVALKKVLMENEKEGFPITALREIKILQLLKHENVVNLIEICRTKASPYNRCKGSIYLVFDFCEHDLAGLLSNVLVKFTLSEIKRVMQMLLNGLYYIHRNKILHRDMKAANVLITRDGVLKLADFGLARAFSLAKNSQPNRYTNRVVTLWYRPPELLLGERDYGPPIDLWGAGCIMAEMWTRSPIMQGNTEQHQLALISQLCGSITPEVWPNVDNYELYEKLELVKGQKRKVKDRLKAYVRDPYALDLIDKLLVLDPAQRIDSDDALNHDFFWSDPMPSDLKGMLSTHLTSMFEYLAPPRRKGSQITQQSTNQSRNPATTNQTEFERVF
Sequence of SGK3 (Q96BR1 whole entry): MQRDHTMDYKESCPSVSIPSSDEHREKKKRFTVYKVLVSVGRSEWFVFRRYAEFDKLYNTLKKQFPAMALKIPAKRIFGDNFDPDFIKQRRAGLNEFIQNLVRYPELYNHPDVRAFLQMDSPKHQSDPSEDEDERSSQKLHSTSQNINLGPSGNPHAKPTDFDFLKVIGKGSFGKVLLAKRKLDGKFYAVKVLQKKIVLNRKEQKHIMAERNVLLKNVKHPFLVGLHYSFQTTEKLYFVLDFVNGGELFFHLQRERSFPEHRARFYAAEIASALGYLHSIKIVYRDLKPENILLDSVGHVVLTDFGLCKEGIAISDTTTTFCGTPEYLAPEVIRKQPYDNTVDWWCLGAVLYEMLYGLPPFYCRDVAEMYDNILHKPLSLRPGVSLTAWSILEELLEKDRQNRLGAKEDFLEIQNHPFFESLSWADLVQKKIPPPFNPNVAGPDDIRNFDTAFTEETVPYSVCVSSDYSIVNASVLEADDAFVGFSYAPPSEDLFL

IC50 [1]: ≥ 20 µM | IC50 [2]: ≥ 20 µM | IC50 [3]: ≥ 20 µM | IC50 [4]: ≥ 20 µM | IC50 [5]: ≥ 20 µM | IC50 [6]: 3.6 µM | IC50 [7]: ≥ 20 µM | IC50 [8]: ≥ 20 µM | IC50 [9]: ≥ 20 µM | IC50 [10]: ≥ 20 µM | IC50 [11]: ≥ 20 µM | IC50 [12]: ≥ 20 µM | IC50 [13]: ≥ 20 µM | IC50 [14]: ≥ 20 µM | IC50 [15]: ≥ 20 µM | IC50 [16]: 1.5 µM | IC50 [17]: ≥ 20 µM | IC50 [18]: ≥ 20 µM | IC50 [19]: ≥ 20 µM | IC50 [20]: ≥ 20 µM | IC50 [21]: ≥ 20 µM
Compound: COc1ccccc1-c1n[nH]c2nc(N[C@H]3CC[C@H](NS(=O)(=O)CCC(F)(F)F)CC3)nc(OC)c12 [compound 31, 3,3,3-Trifluoro-N-(trans-4-((4-methoxy-3-(2-methoxyphenyl)-1H-pyrazolo[3,4-d]pyrimidin-6-yl)amino)cyclohexyl)propane-1-sulfonamide]
